Test results reported in PubChem BioAssay (NCI).
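Protocol summary: plate cells (96-well), add compound at 5 concentrations, incubate 48 h, interpolate endpoints linearly. GI50 is the concentration that inhibits growth by half. The concentration for full growth arrest is given as TGI.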

Assays:
Assay in all cases: NCI tumour cell line growth inhibition, 48 h
MOLT-4 leukemia = system: MOLT-4 leukemia
SNB-19 CNS = system: SNB-19 CNS
SW-620 colon = system: SW-620 colon
A498 renal = system: A498 renal
SK-MEL-28 melanoma = system: SK-MEL-28 melanoma
SN12C renal = system: SN12C renal
HOP-92 NSCLC = system: HOP-92 NSCLC
NCI/ADR-RES ovarian = system: NCI/ADR-RES ovarian
CCRF-CEM leukemia = system: CCRF-CEM leukemia
OVCAR-8 ovarian = system: OVCAR-8 ovarian
HCT-116 colon = system: HCT-116 colon
OVCAR-5 ovarian = system: OVCAR-5 ovarian
M14 melanoma = system: M14 melanoma
HCC-2998 colon = system: HCC-2998 colon
MALME-3M melanoma = system: MALME-3M melanoma
BT-549 breast = system: BT-549 breast
K-562 leukemia = system: K-562 leukemia
UACC-257 melanoma = system: UACC-257 melanoma
KM12 colon = system: KM12 colon
HT29 colon = system: HT29 colon
ACHN renal = system: ACHN renal
TK-10 renal = system: TK-10 renal
UO-31 renal = system: UO-31 renal
CAKI-1 renal = system: CAKI-1 renal
IGROV1 ovarian = system: IGROV1 ovarian
NCI-H226 lung = system: NCI-H226 lung
A549 NSCLC = system: A549 NSCLC
SF-268 CNS = system: SF-268 CNS
COLO 205 colon = system: COLO 205 colon
RXF 393 renal = system: RXF 393 renal
SK-MEL-2 melanoma = system: SK-MEL-2 melanoma
U251 CNS = system: U251 CNS
OVCAR-3 ovarian = system: OVCAR-3 ovarian
HCT-15 colon = system: HCT-15 colon
RPMI-8226 leukemia = system: RPMI-8226 leukemia
LOX IMVI melanoma = system: LOX IMVI melanoma
T-47D breast = system: T-47D breast
SK-MEL-5 melanoma = system: SK-MEL-5 melanoma
EKVX NSCLC = system: EKVX NSCLC
SF-295 CNS = system: SF-295 CNS
UACC-62 melanoma = system: UACC-62 melanoma
786-0 renal = system: 786-0 renal
HL-60(TB) leukemia = system: HL-60(TB) leukemia
OVCAR-4 ovarian = system: OVCAR-4 ovarian
HS 578T breast = system: HS 578T breast
PC-3 prostate = system: PC-3 prostate
SNB-75 CNS = system: SNB-75 CNS
NCI-H23 lung = system: NCI-H23 lung
SK-OV-3 ovarian = system: SK-OV-3 ovarian
DU-145 prostate = system: DU-145 prostate
MDA-MB-231 breast = system: MDA-MB-231 breast
MCF7 breast = system: MCF7 breast
HOP-62 NSCLC = system: HOP-62 NSCLC
NCI-H460 lung = system: NCI-H460 lung
NCI-H522 lung = system: NCI-H522 lung
MDA-MB-435 = system: MDA-MB-435
SF-539 CNS = system: SF-539 CNS

Compound: N#Cc1cc(-c2ccnc(Nc3ccc(NC(=O)CCl)cc3)n2)ccc1N1CCCC1
- GI50 (MOLT-4 leukemia): 2.42 µM
- TGI (MOLT-4 leukemia): > 25 µM
- GI50 (SNB-19 CNS): 4.87 µM
- TGI (SNB-19 CNS): 16.7 µM
- GI50 (SW-620 colon): 0.815 µM
- TGI (SW-620 colon): 2.63 µM
- GI50 (A498 renal): 3.88 µM
- TGI (A498 renal): 9.92 µM
- GI50 (SK-MEL-28 melanoma): 4.28 µM
- TGI (SK-MEL-28 melanoma): 8.54 µM
- GI50 (SN12C renal): 0.818 µM
- TGI (SN12C renal): 4.59 µM
- GI50 (HOP-92 NSCLC): 4.22 µM
- TGI (HOP-92 NSCLC): > 25 µM
- GI50 (NCI/ADR-RES ovarian): 1.14 µM
- TGI (NCI/ADR-RES ovarian): > 25 µM
- GI50 (CCRF-CEM leukemia): 0.738 µM
- TGI (CCRF-CEM leukemia): > 25 µM
- GI50 (OVCAR-8 ovarian): 1.15 µM
- TGI (OVCAR-8 ovarian): > 25 µM
- GI50 (HCT-116 colon): 0.684 µM
- TGI (HCT-116 colon): 1.88 µM
- GI50 (OVCAR-5 ovarian): 5.4 µM
- TGI (OVCAR-5 ovarian): 12.7 µM
- GI50 (M14 melanoma): 0.646 µM
- TGI (M14 melanoma): 1.49 µM
- GI50 (HCC-2998 colon): 4.96 µM
- TGI (HCC-2998 colon): 9.14 µM
- GI50 (MALME-3M melanoma): 1.47 µM
- TGI (MALME-3M melanoma): 6.05 µM
- GI50 (BT-549 breast): 0.708 µM
- TGI (BT-549 breast): 2.25 µM
- GI50 (K-562 leukemia): 0.711 µM
- TGI (K-562 leukemia): > 25 µM
- GI50 (UACC-257 melanoma): 5.04 µM
- TGI (UACC-257 melanoma): 11.6 µM
- GI50 (KM12 colon): 3.84 µM
- TGI (KM12 colon): 10.2 µM
- GI50 (HT29 colon): 0.68 µM
- TGI (HT29 colon): 4.8 µM
- GI50 (ACHN renal): 1.86 µM
- TGI (ACHN renal): 6.6 µM
- GI50 (TK-10 renal): 0.894 µM
- TGI (TK-10 renal): 3.48 µM
- GI50 (UO-31 renal): 1.07 µM
- TGI (UO-31 renal): 4.29 µM
- GI50 (CAKI-1 renal): 0.875 µM
- TGI (CAKI-1 renal): 6.77 µM
- GI50 (IGROV1 ovarian): 0.514 µM
- TGI (IGROV1 ovarian): 1.18 µM
- GI50 (NCI-H226 lung): 0.723 µM
- TGI (NCI-H226 lung): 1.66 µM
- GI50 (A549 NSCLC): 5.27 µM
- TGI (A549 NSCLC): 14.7 µM
- GI50 (SF-268 CNS): 1.38 µM
- TGI (SF-268 CNS): 9.4 µM
- GI50 (COLO 205 colon): 2.87 µM
- TGI (COLO 205 colon): 7.17 µM
- GI50 (RXF 393 renal): 0.779 µM
- TGI (RXF 393 renal): 2.69 µM
- GI50 (SK-MEL-2 melanoma): 0.933 µM
- TGI (SK-MEL-2 melanoma): 2.92 µM
- GI50 (U251 CNS): 3.35 µM
- TGI (U251 CNS): 8.09 µM
- GI50 (OVCAR-3 ovarian): 2.9 µM
- TGI (OVCAR-3 ovarian): 7.59 µM
- GI50 (HCT-15 colon): 0.734 µM
- TGI (HCT-15 colon): 3 µM
- GI50 (RPMI-8226 leukemia): 1.7 µM
- TGI (RPMI-8226 leukemia): 22.7 µM
- GI50 (LOX IMVI melanoma): 0.45 µM
- TGI (LOX IMVI melanoma): 0.865 µM
- GI50 (T-47D breast): 5.1 µM
- TGI (T-47D breast): 11 µM
- GI50 (SK-MEL-5 melanoma): 1.08 µM
- TGI (SK-MEL-5 melanoma): 3.72 µM
- GI50 (EKVX NSCLC): 22.6 µM
- TGI (EKVX NSCLC): > 25 µM
- GI50 (SF-295 CNS): 5.11 µM
- TGI (SF-295 CNS): 13.9 µM
- GI50 (UACC-62 melanoma): 2.22 µM
- TGI (UACC-62 melanoma): 5.99 µM
- GI50 (786-0 renal): 0.649 µM
- TGI (786-0 renal): 6.14 µM
- GI50 (HL-60(TB) leukemia): 5.1 µM
- TGI (HL-60(TB) leukemia): > 25 µM
- GI50 (OVCAR-4 ovarian): 3.49 µM
- TGI (OVCAR-4 ovarian): 10.5 µM
- GI50 (HS 578T breast): 2.22 µM
- TGI (HS 578T breast): > 25 µM
- GI50 (PC-3 prostate): 2.68 µM
- TGI (PC-3 prostate): 13.9 µM
- GI50 (SNB-75 CNS): 1.12 µM
- TGI (SNB-75 CNS): 7.72 µM
- GI50 (NCI-H23 lung): 0.878 µM
- TGI (NCI-H23 lung): 3.72 µM
- GI50 (SK-OV-3 ovarian): 2.9 µM
- TGI (SK-OV-3 ovarian): 6.97 µM
- GI50 (DU-145 prostate): 4.17 µM
- TGI (DU-145 prostate): 16.5 µM
- GI50 (MDA-MB-231 breast): 2.82 µM
- TGI (MDA-MB-231 breast): 10.1 µM
- GI50 (MCF7 breast): 0.809 µM
- TGI (MCF7 breast): 3.64 µM
- GI50 (HOP-62 NSCLC): 4.64 µM
- TGI (HOP-62 NSCLC): 18.8 µM
- GI50 (NCI-H460 lung): 2.04 µM
- TGI (NCI-H460 lung): 6.4 µM
- GI50 (NCI-H522 lung): 0.378 µM
- TGI (NCI-H522 lung): 0.831 µM
- GI50 (MDA-MB-435): 0.716 µM
- TGI (MDA-MB-435): 2.7 µM
- GI50 (SF-539 CNS): 2.81 µM
- TGI (SF-539 CNS): 5.9 µM
